This is an account of results in publication PMC8201735 (BMC Pharmacology & Toxicology, 2021).

The structures appear in SMILES notation.

Data set [1] can be described thus: Plasma pharmacokinetics of metformin with and without RE. In kind it is in vivo, human. As to conditions: RE 500 mg or 750 mg BID with metformin. The method, then: PK analysis was conducted by […] (Chapel Hill, NC, USA), under the direction of Clinical Pharmacokinetics/Modelling and Simulation, GSK using the non-compartmental analysis Model 200 (for extra vascular administration) of WinNonlin Professional Edition version 4.1 (Pharsight Corporation, Mountain View, CA). […] Descriptive statistics were used to summarize baseline demographics, safety data, and pharmacokinetic parameters. Geometric mean and % CVb (between-subject coefficient of variation) were calculated for all pharmacokinetic parameters except tmax. Comparisons of placebo with each active dose of RE were assessed in terms of change from baseline in fasting plasma lactate acid using repeated measures analysis of covariance model. The model included terms for baseline measurement, visit, treatment and visit-by-treatment interaction. The same model was applied to change from baseline in weighted means of day-time, night-time and 0-24 h of blood pressures. Within group treatment comparison was performed using mixed model on log transformed Cmax and AUC (0-last).

The subject of a further data set is subjects with T2DM. As to conditions: RE 500 mg BID and metformin 500 mg BID for 3 days; cited from earlier work.
Another data set concerns T2DM patients. Set-up: method as in PMID 32162274. As to conditions: T2DM patients on daily metformin therapy (> 1500 mg) over 24 weeks; cited from earlier work.

On to `CCOC(=O)OC[C@H]1O[C@@H](Oc2nn(C(C)C)c(C)c2Cc2ccc(OC(C)C)cc2)[C@H](O)[C@@H](O)[C@@H]1O` [RE, remogliflozin etabonate], for which, in data set [1], the “Effect of RE on the pharmacokinetics of metformin” value is listed as “no effect”. Moreover, in the data set with subjects with T2DM, the “Effect of RE on the steady-state plasma profiles of metformin” value is on record as “no effect” and the “Tolerability of concomitant administration” value was “well tolerated”. In the data set with T2DM patients, the Glycemic efficacy entry is “comparable to dapagliflozin”.
